Experimental data reported in PubChem BioAssay AID256 (DTP/NCI, 2004).
Where “and” joins values, the source holds several entries; their conditions need not be identical. Identical values can stand only once. Toxic doses and inconclusive results are not listed.

Test system: CD2F1 mice, L1210 leukemia ip, survival T/C
Assay: NCI In Vivo Anticancer Drug Screen. Data for tumor model L1210 Leukemia (intraperitoneal) in CD2F1 (CDF1) mice
Details: endpoint: mean survival time, higher = longer survival
Summary of the method: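 In this screen, transplantable tumors were grown in mice given either the compound or its vehicle. Results were expressed as the treated measurement relative to the control measurement.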

## COc1cc([C@@H]2c3cc4c(cc3[C@@H](OC3OC5CO[C@@H](c6cccs6)OC5C(O)C3O)[C@H]3COC(=O)[C@H]23)OCO4)cc(OC)c1O (stereo partly specified)
dose: 0.25 mg/kg/injection, schedule: Q01DX009 (ip), vehicle: saline
  T/C: 115 % of control
dose: 0.25 mg/kg/injection, schedule: Q03HX016 (ip), vehicle: saline
  T/C: 152 % of control
dose: 0.25 mg/kg/injection, schedule: Q03HX024 (ip), vehicle: saline
  T/C: 169 % of control and 173 % of control
dose: 0.5 mg/kg/injection, schedule: Q01DX009 (sc), vehicle: saline
  T/C: 110 % of control
dose: 0.5 mg/kg/injection, schedule: Q03HX008 (ip), vehicle: saline
  T/C: 164 % of control
dose: 0.5 mg/kg/injection, schedule: Q03HX016 (ip), vehicle: saline
  T/C: 246 % of control
dose: 0.5 mg/kg/injection, schedule: Q03HX024 (ip), vehicle: saline
  T/C: 256 % of control and 323 % of control
dose: 1.0 mg/kg/injection, schedule: Q01DX005 (ip), vehicle: saline
  T/C: 153 % of control
dose: 1.0 mg/kg/injection, schedule: Q01DX009 (ip), vehicle: saline
  T/C: 123 % of control and 231 % of control and 106 % of control
dose: 1.0 mg/kg/injection, schedule: Q03HX008 (ip), vehicle: saline
  T/C: 192 % of control
dose: 1.0 mg/kg/injection, schedule: Q03HX016 (ip), vehicle: saline
  T/C: 544 % of control
dose: 1.0 mg/kg/injection, schedule: Q03HX024 (ip), vehicle: saline
  T/C: 441 % of control and 514 % of control
dose: 2.0 mg/kg/injection, schedule: Q01DX001 (sc), vehicle: saline
  T/C: 113 % of control
dose: 2.0 mg/kg/injection, schedule: Q01DX005 (ip), vehicle: saline
  T/C: 204 % of control
dose: 2.0 mg/kg/injection, schedule: Q01DX009 (ip), vehicle: saline
  T/C: 202 % of control and 109 % of control
dose: 2.0 mg/kg/injection, schedule: Q01DX009 (oral), vehicle: saline
  T/C: 114 % of control
dose: 2.0 mg/kg/injection, schedule: Q01DX009 (sc), vehicle: saline
  T/C: 166 % of control
dose: 2.0 mg/kg/injection, schedule: Q03HX008 (ip), vehicle: saline
  T/C: 173 % of control
dose: 2.0 mg/kg/injection, schedule: Q03HX016 (ip), vehicle: saline
  T/C: 313 % of control
dose: 2.0 mg/kg/injection, schedule: Q03HX024 (ip), vehicle: saline
  T/C: 89 % of control
dose: 4.0 mg/kg/injection, schedule: Q01DX001 (ip), vehicle: saline
  T/C: 158 % of control
dose: 4.0 mg/kg/injection, schedule: Q01DX001 (sc), vehicle: saline
  T/C: 123 % of control
dose: 4.0 mg/kg/injection, schedule: Q01DX005 (ip), vehicle: saline
  T/C: 87 % of control
dose: 4.0 mg/kg/injection, schedule: Q01DX009 (ip), vehicle: saline
  T/C: 210 % of control and 112 % of control
dose: 4.0 mg/kg/injection, schedule: Q01DX009 (sc), vehicle: saline
  T/C: 102 % of control
dose: 4.0 mg/kg/injection, schedule: Q04DX003 (ip), vehicle: saline
  T/C: 209 % of control
dose: 4.0 mg/kg/injection, schedule: Q08DX002 (ip), vehicle: saline
  T/C: 164 % of control
dose: 8.0 mg/kg/injection, schedule: Q01DX001 (ip), vehicle: saline
  T/C: 239 % of control
dose: 8.0 mg/kg/injection, schedule: Q01DX001 (oral), vehicle: saline
  T/C: 122 % of control
dose: 8.0 mg/kg/injection, schedule: Q01DX009 (oral), vehicle: saline
  T/C: 102 % of control
dose: 8.0 mg/kg/injection, schedule: Q04DX003 (ip), vehicle: saline
  T/C: 169 % of control and 251 % of control
dose: 8.0 mg/kg/injection, schedule: Q08DX002 (ip), vehicle: saline
  T/C: 346 % of control
dose: 16.0 mg/kg/injection, schedule: Q01DX001 (ip), vehicle: saline
  T/C: 254 % of control
dose: 16.0 mg/kg/injection, schedule: Q01DX001 (sc), vehicle: saline
  T/C: 153 % of control
dose: 32.0 mg/kg/injection, schedule: Q01DX001 (ip), vehicle: saline
  T/C: 87 % of control
dose: 32.0 mg/kg/injection, schedule: Q01DX001 (sc), vehicle: saline
  T/C: 156 % of control
dose: 32.0 mg/kg/injection, schedule: Q04DX003 (ip), vehicle: saline
  T/C: 454 % of control
dose: 32.0 mg/kg/injection, schedule: Q08DX002 (ip), vehicle: saline
  T/C: 114 % of control

## O=C1C(Cl)=C(c2ccccc2)C(OC2(c3ccccc3)C(Cl)C(=O)C(Cl)C2c2ccccc2)(c2ccccc2)C1Cl (stereo unspecified)
dose: 100.0 mg/kg/injection, schedule: Q04DX002 (ip), vehicle: saline with Tween-80
  T/C: 96 % of control
dose: 200.0 mg/kg/injection, schedule: Q04DX002 (ip), vehicle: saline with Tween-80
  T/C: 101 % of control
dose: 400.0 mg/kg/injection, schedule: Q04DX002 (ip), vehicle: saline with Tween-80
  T/C: 96 % of control
